Measured values as given in US20250270213A1, “PI3Ka INHIBITORS” (Synnovation Therapeutics, Inc., priority 2022, published 2025).

Assays:
Type in all cases: cell-based
SKBR3 (PIK3CA WT) cells = experiment: pS473 AKT assay, SKBR3 cells; conditions: Homo sapiens, SK-BR-3, pSer473 AKT, complete medium with 10% fetal bovine serum, 2 h treatment, read-out: SKBR3_IC50
Experimental: (§1) Example A. pS473 AKT Assay Protocol
(§2) SKBR3 (PIK3CA WT), MCF7 (PIK3CA E545K), and T47D (PIK3CA H1047R) cells were cultured using 10-cm petri dishes with recommended medium plus 10% fetal bovine serum. One day before the assay, cells were seeded in 96-well plates at a final density of 10,000 cells per well. After overnight incubation in complete medium, cells were treated with different concentrations of PI3Kα inhibitors for 2 h. Cells were then fixed using 4% paraformaldehyde at room temperature for 20 min. Aspirate 4% paraformaldehyde, and wash cells using 1× regular phosphate buffered saline 3 times, 5 min each. Aspirate any residual phosphate buffered saline and block cells using 10% goat serum containing 1% bovine serum albumin and 0.3% Triton X-100 at room temperature for 1 h. Without any additional washing, primary antibodies (rabbit anti-pSer473 AKT) were diluted using blocking buffer and added at a final volume of 50 microliter per well. Keep assay plates with primary antibodies overnight at 4° C. Wash cells using 1× regular phosphate buffered saline 3 times, 5 min each. After the final wash, incubate cells with horseradish peroxidase-conjugated secondary antibodies (goat Anti-rabbit IgG) diluted using the same blocking buffer at room temperature for 1 h. Wash cells thoroughly using 1× regular phosphate buffered saline 3 times, 5 min each. Aspirate any residual phosphate buffered saline. Add Super-Signal ELISA Pico Chemiluminescent Substrate at a final volume of 100 microliter per well. Read plates on i3x Multi-Mode Microplate Reader and calculate IC50 values using GraphPad Prism software.

[1] = tested on: MCF7 (PIK3CA E545K) cells; experiment: pS473 AKT assay, MCF7 cells; conditions: Homo sapiens, pSer473 AKT, complete medium with 10% fetal bovine serum, 2 h treatment, read-out: MCF7_IC50
Experimental: as §1, §2

[2] = tested on: T47D (PIK3CA H1047R) cells; experiment: pS473 AKT assay, T47D cells; conditions: Homo sapiens, pSer473 AKT, complete medium with 10% fetal bovine serum, 2 h treatment, read-out: T47D_IC50
Experimental: as §1, §2

[3] = tested on: T47D (PIK3CA H1047R) cells; experiment: pS473 AKT assay with 2.5% FBS, T47D cells; conditions: Homo sapiens, pSer473 AKT, DMEM with 2.5% FBS, 2 h treatment, read-out: T47D_IC50
Procedure, shortened: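 T47D (PIK3CA H1047R) cells were switched to DMEM with 2.5% FBS and exposed to compounds for 2 h. After paraformaldehyde fixation, pSer473 AKT was detected by in-cell ELISA (rabbit primary, HRP anti-rabbit secondary, chemiluminescence); IC50 values were fitted from the concentration series.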

| IC50 [3] [µM] | SMILES | IC50 (SKBR3 (PIK3CA WT) cells) [µM] | IC50 [1] [µM] | IC50 [2] [µM] |
| --- | --- | --- | --- | --- |
|  | Cc1cc(C(C)Nc2ccccc2C(=O)O)c2c(c1)c(=O)n(C)c1c(-c3ccccc3)cnn21 (centres unmarked) [Compound I-2, 2-((1-(4,7-dimethyl-5-oxo-3-phenyl-4,5-dihydropyrazolo[1,5-a]quinazolin-9-yl)ethyl)amino)benzoic acid] | > 30 | > 30 | 1 to 5 |
|  | Cc1cc(C(C)Nc2ccccc2C(=O)O)c2c(c1)c(=O)n(C)c1ccnn21 (centres unmarked) [Compound I-1, 2-((1-(4,7-dimethyl-5-oxo-4,5-dihydropyrazolo[1,5-a]quinazolin-9-yl)ethyl)amino)benzoic acid] | > 30 | > 30 | 1 to 5 |
|  | C=Cc1cnn2c3c(C(C)Nc4ccccc4C(=O)O)cc(C)cc3c(=O)n(C)c12 (centres unmarked) [Compound I-3, 2-((1-(4,7-dimethyl-5-oxo-3-vinyl-4,5-dihydropyrazolo[1,5-a]quinazolin-9-yl)ethyl)amino)benzoic acid] | > 30 | > 30 | 1 to 5 |
| < 1 | CCc1ncn2c3c(C(C)Nc4ccccc4C(=O)O)cc(Cl)cc3c(=O)n(CC)c12 (centres unmarked) [Compound I-13, 2-((1-(7-Chloro-3,4-diethyl-5-oxo-4,5-dihydroimidazo[1,5-a]quinazolin-9-yl)ethyl)amino)benzoic acid] |  |  |  |
| < 1 | CCn1c(=O)c2cc(C)cc(C(C)Nc3ccc(Cl)nc3-c3ncn(C)n3)c2c2cnn(C3CCN(C(C)C)C3)c21 (centres unmarked) [Compound 147, 9-(1-((6-chloro-2-(1-methyl-1H-1,2,4-triazol-3-yl)pyridin-3-yl)amino)ethyl)-4-ethyl-3-(1-isopropylpyrrolidin-3-yl)-7-methyl-3,4-dihydro-5H-pyrazolo[3,4-c]isoquinolin-5-one] |  |  |  |
| < 1 | Cc1cc(C(C)Nc2ccc(Cl)nc2-c2cnn(C)c2)c2c(c1)c(=O)n(C)c1c(-c3cncnc3)ncn21 (centres unmarked) [Compound 117, 9-(1-((6-chloro-2-(1-methyl-1H-pyrazol-4-yl)pyridin-3-yl)amino)ethyl)-4,7-dimethyl-3-(pyrimidin-5-yl)imidazo[1,5-a]quinazolin-5(4H)-one] |  |  |  |
| < 1 | Cc1cc(C(C)Nc2ccccc2C(=O)O)c2c(c1)c(=O)n(C)c1c(C)ncn21 (centres unmarked) [Compound I-7, 2-((1-(3,4,7-Trimethyl-5-oxo-4,5-dihydroimidazo[1,5-a]quinazolin-9-yl)ethyl)amino)benzoic acid] |  |  |  |
| < 1 | CC(=O)N1CC(n2ncc3c4c(C(C)Nc5ccc(Cl)nc5-c5ncn(C)n5)cc(C)cc4c(=O)n(C)c32)C1 (centres unmarked) [Compound 97, 3-(1-Acetylazetidin-3-yl)-9-(1-((6-chloro-2-(1-methyl-1H-1,2,4-triazol-3-yl)pyridin-3-yl)amino)ethyl)-4,7-dimethyl-3,4-dihydro-5H-pyrazolo[3,4-c]isoquinolin-5-one] |  |  |  |
